# Results published in US9708247B2, “Modulators of the eIF2alpha pathway” (The Regents of the University of California, priority 2013, dated 2017).
# Key:
# Format in all cases: cell-based, human
# [1] = test system: eIF2α (p-Ser51); assay: AlphaScreen SureFire eIF2α(p-Ser51) assay in U2OS cells; settings: U2OS cells, ER stressor alone, after 120 minutes
# Method: U2OS cells were plated on 96 well plates and left to recover overnight. Cells were treated with either with 2 μg/ml tunicamycin or 100 nM thapsigargin in the presence or absence of 100 nM ISRIB or with ISRIB alone for the indicated and the level of eIF2α phosphorylation was determined using the AlphaScreen SureFire eIF2α(p-Ser51) Assay kit (Perkin Elmer) following the manufacturer's recommendations. Plates were read in an Envision Xcite Multilabel Reader using the standard Alpha Screen settings.
# [2] = test system: global translation; assay: Metabolic labeling (35S-methionine incorporation) in HEK293T cells; settings: 100 nM thapsigargin alone
# Method: HEK293T cells were seeded on 12 well plates, allowed to recover overnight and treated for the indicated times with the indicated compounds. The cells were subsequently switched to media lacking methionine and cysteine supplemented with the indicated compounds and 50 μCi of ^35S-methionine (Perkin Elmer) for 20 min. Cells were lysed by addition of SDS-PAGE loading buffer. Lysates were sonicated and equal amounts were loaded on SDS-PAGE gels (BioRad). The gel was dried and radioactive methionine incorporation was detected by exposure to a phosphor-screen and visualized with a Typhoon 9400 Variable Mode Imager (GE Healthcare).
# [3] = test system: ATF4 luciferase reporter; assay: ATF4 luciferase reporter assay (Cell-luc) in HEK293T cells; settings: ER stressor alone, 384 well format
compound,measurement,setting,value
"C/C=C(/C)C(=O)O[C@H]1C(C)=C2[C@H]([C@@H]1OC(=O)CCCCCCC)[C@@](C)(OC(C)=O)C[C@H](OC(=O)CCC)[C@@]1(O)[C@H]2OC(=O)[C@@]1(C)O [Thapsigargin, thapsigargin, reference compound]",increase of eIF2α phosphorylation,[1],7 fold
same,drop in translation,[2],40%
same,induction in luciferase activity,[3],4.9 fold
